Reference: patent publication EP0593348A1, “Thiazolidine dione derivatives, process for their preparation and pharmaceutical compositions containing them” (ADIR ET COMPAGNIE, priority 1992, dated 1994)
Like-named read-outs stand apart in the source and are kept apart here. Blank lines part the entries; values can stand above or below the molecule they belong to.

Columns and labels:
souris ob/ob = assay: Hypoglycaemic activity in a non-insulin-dependent diabetes (NIDDM) model, ob/ob mice; format: in vivo; details: oral, 4 days, base 100, reached at the dose given
Excerpt: A/ Etude de l'activité des composés de l'invention sur un modèle de diabète non insulino-dépendant (NIDDM).
Les animaux (souris ob/ob) sont traités chaque jour, pendant 4 jours, en administrant par voie orale, les composés de l'invention en suspension dans une solution à 20 % de gomme du Sénégal. Avant et après traitement, soit à J0 et à J5, le sang est prélevé par ponction du sinus orbital et la glycémie est déterminée. Le tableau 1 présente les doses des différents produits à administrer pour obtenir le même effet hypoglycémiant (base 100).

rats Zucker Fa/Fa mâles = assay: Model of reduced glucose tolerance with hyperinsulinaemia and hyperlipaemia, male Zucker Fa/Fa rats; format: in vivo; details: 5 mg/kg/jour oral for 10 days; for Glycémie (%) / Plasma insuline (%): blood on day 11, control = 100; for Poids ΔP% J₁₁-J₁: control = +100; for AGL (%): plasma free fatty acids; for AGL (%) / TG (%): control = 100; for TG (%): plasma triglycerides
Procedure: B/ Etude de l'activité des composés de l'invention sur un modèle de tolérance au glucose diminuée associée à une hyperinsulinémie et une hyperlipémie .
Les animaux (rats Zucker Fa/Fa mâles) sont traités, chaque jour, pendant 10 jours, en administrant, par voie orale, les composés de l'invention à la dose de 5 mg/kg/jour en suspension dans une solution à 20 % de gomme du Sénégal. Le 11ème jour, les animaux sont sacrifiés et le sang recueilli afin de déterminer la glycémie, les triglycérides plasmatiques et l'insuline immuno-réactive. D'autre part, les animaux sont pesés avant et après traitement.
Dans ces conditions, les composés de l'invention n'ont pas d'influence sur le taux de glucose circulant mais diminuent le taux de triglycérides (TG) et d'acides gras libres plasmatiques (AGL) ainsi que celui de l'insuline immuno-réactive. Cette activité est égale ou supérieure à celle d'autres dérivés de thiazolidinedione de référence.

rats SDCD mâles = details: rat, in vivo
Excerpt: Administrés per os à des rats SDCD mâles pesant 175 g les produits sont sans effet sur les éléments figurés du sang et le volume plasmatique, à la différence de la pioglitazone : […]

Compound: COc1ccc(OC)c(C(=O)NCCc2ccc(CC3SC(=O)NC3=O)cc2)c1 (racemic) [Exemple 7, (R,S) 5-{4-[2-(2,5-diméthoxybenzamido)éthyl]benzyl}thiazolidine-2,4-dione]
Pouvoir hypoglycémiant (souris ob/ob): 100

Compound: COc1ccc(C=CC(=O)NCCc2ccc(CC3SC(=O)NC3=O)cc2)cc1OC (racemic) [Exemple 43, (R,S) 5-{4-[2-(3-(3,4-diméthoxyphényl)prop-2-énoylamino)éthyl]benzyl} thiazolidine-2,4-dione]
Pouvoir hypoglycémiant (souris ob/ob): 100

Compound: O=C1NC(=O)C(Cc2ccc(CCNC(=O)c3cnccn3)cc2)S1 (racemic) [Exemple 25, (R,S) 5-{4-[2-(pyrazin-2-ylcarbonylamino)éthyl]benzyl}thiazolidine-2,4-dione]
Pouvoir hypoglycémiant (souris ob/ob): 100

Compound: O=C1NC(=O)C(Cc2ccc(CCNC(=O)c3cccs3)cc2)S1 (racemic) [Exemple 35, (R,S) 5-{4-[2-(thién-2-ylcarbonylamino)éthyl]benzyl}thiazolidine-2,4-dione]
Pouvoir hypoglycémiant (souris ob/ob): 100

Compound: COc1ccc(Cl)cc1C(=O)NCCCc1ccc(CC2SC(=O)NC2=O)cc1 (racemic) [Exemple 33, (R,S) 5-{4-[3-(2-méthoxy-5-chlorobenzamido)propyl]benzyl}thiazolidine-2,4-dione]
Pouvoir hypoglycémiant (souris ob/ob): 100

Compound: Cc1cccc(C)c1C(C(=O)NCCc1ccc(CC2SC(=O)NC2=O)cc1)c1c(C)cccc1C (racemic) [Exemple 46, (R,S) 5-{4-[2-(2,2-bis(2,6-diméthylphényl)acétylamino)éthyl]benzyl} thiazolidine-2,4-dione]
Pouvoir hypoglycémiant (souris ob/ob): 100

Globules blancs (rats SDCD mâles; 100 mg/kg): - 6%
Globules rouges (rats SDCD mâles; 100 mg/kg): - 2%
Hématocrite (rats SDCD mâles; 100 mg/kg): + 11%
Hémoglobine (rats SDCD mâles; 100 mg/kg): + 11%
Globules blancs (rats SDCD mâles; 250 mg/kg): - 4%
Globules rouges (rats SDCD mâles; 250 mg/kg): - 11%
Hématocrite (rats SDCD mâles; 250 mg/kg): + 4%
Hémoglobine (rats SDCD mâles; 250 mg/kg): + 4%
Compound: COc1ccc(Cl)cc1C(=O)NCCc1ccc(CC2SC(=O)NC2=O)cc1 (stereo not drawn) [Exemple 1, 5-{4-[2-(2-méthoxy 5-chlorobenzamido) éthyl]benzyl} thiazolidine 2,4-dione]
Pouvoir hypoglycémiant (souris ob/ob): 100
Glycémie (%) (rats Zucker Fa/Fa mâles): 113%
Plasma insuline (%) (rats Zucker Fa/Fa mâles): 71%
Poids ΔP% J₁₁-J₁ (rats Zucker Fa/Fa mâles): +112%
AGL (%) (rats Zucker Fa/Fa mâles): 83%
TG (%) (rats Zucker Fa/Fa mâles): 94%

Compound: Cc1cc(C(=O)NCCc2ccc(CC3SC(=O)NC3=O)cc2)no1 (racemic) [Exemple 15, (R,S) 5-{4-[2-(5-méthyl 1,2-oxazol-3-ylcarbonylamino)éthyl]benzyl} thiazolidine-2,4-dione]
Pouvoir hypoglycémiant (souris ob/ob): 100

Compound: CN(C)c1ccccc1C(=O)NCCc1ccc(CC2SC(=O)NC2=O)cc1 (racemic) [Exemple 28, (R,S) 5-{4-[2-(2-diméthylaminobenzamido)éthyl]benzyl}thiazolidine-2,4-dione]
Pouvoir hypoglycémiant (souris ob/ob): 100
Glycémie (%) (rats Zucker Fa/Fa mâles): 99%
Plasma insuline (%) (rats Zucker Fa/Fa mâles): 75%
Poids ΔP% J₁₁-J₁ (rats Zucker Fa/Fa mâles): +103%
AGL (%) (rats Zucker Fa/Fa mâles): 110%
TG (%) (rats Zucker Fa/Fa mâles): 89%

Compound: COc1ccc(Cl)cc1C(=O)NCc1ccc(CC2SC(=O)NC2=O)cc1 (racemic) [Exemple 36, (R,S) 5-{4-[(5-chloro-2-méthoxybenzamido)méthyl]benzyl}thiazolidine-2,4-dione]
Pouvoir hypoglycémiant (souris ob/ob): 100

Compound: CC(C)(C)c1cc(OCCc2ccc(CC3SC(=O)NC3=O)cc2)cc(C(C)(C)C)c1O (racemic) [Exemple 41, (R,S) 5-{4-[2-(3,5-di-tert-butyl-4-hydroxyphénoxy)éthyl]benzyl} thiazolidine-2,4-dione]
Pouvoir hypoglycémiant (souris ob/ob): 100

Compound: O=C1NC(=O)C(Cc2ccc(CCN3C(=O)c4ccccc4C3=O)cc2)S1 (stereo not drawn) [Exemple 4, 5-{4-[2-(phtalimido)éthyl]benzyl}thiazolidine-2,4-dione]
Pouvoir hypoglycémiant (souris ob/ob): 100
Glycémie (%) (rats Zucker Fa/Fa mâles): 108%
Plasma insuline (%) (rats Zucker Fa/Fa mâles): 72%
Poids ΔP% J₁₁-J₁ (rats Zucker Fa/Fa mâles): +132%
AGL (%) (rats Zucker Fa/Fa mâles): 108%
TG (%) (rats Zucker Fa/Fa mâles): 78%

Compound: O=C(C=Cc1ccc2c(c1)OCO2)NCCc1ccc(CC2SC(=O)NC2=O)cc1 (racemic) [Exemple 44, (R,S) 5-{4-[2-(3-(3,4-méthylènedioxyphényl)prop-2-énoylamino)éthyl]benzyl} thiazolidine-2,4-dione]
Pouvoir hypoglycémiant (souris ob/ob): 100

Compound: O=C(CC(c1ccccc1)c1ccccc1)NCCc1ccc(CC2SC(=O)NC2=O)cc1 (racemic) [Exemple 6, (R,S) 5-{4-[2-(3,3-diphénylpropionamido)éthyl]benzyl}thiazolidine-2,4-dione]
Pouvoir hypoglycémiant (souris ob/ob): 100

Compound: CC1(COc2ccc(CC3SC(=O)NC3=O)cc2)CCCCC1 (stereo not drawn) [Ciglitazone, reference compound]
Pouvoir hypoglycémiant (souris ob/ob): 100

Compound: O=C1NC(=O)C(Cc2ccc(CCNC(=O)c3ccccc3O)cc2)S1 (racemic) [Exemple 3, (R,S) 5-{4-[2-(salicyloyamino) éthyl]benzyl} thiazolidine-2,4-dione]
Pouvoir hypoglycémiant (souris ob/ob): 100

Compound: O=C1NC(=O)C(Cc2ccc(CCNC(=O)c3ccco3)cc2)S1 (racemic) [Exemple 14, (R,S) 5-{4-[2-(fur-2-ylcarbonylamino)éthyl]benzyl}thiazolidine-2,4-dione]
Pouvoir hypoglycémiant (souris ob/ob): 100

Globules blancs (rats SDCD mâles; 100 mg/kg): - 46%
Globules rouges (rats SDCD mâles; 100 mg/kg): - 37%
Hématocrite (rats SDCD mâles; 100 mg/kg): - 26%
Hémoglobine (rats SDCD mâles; 100 mg/kg): - 29%
Compound: CCc1ccc(CCOc2ccc(CC3SC(=O)NC3=O)cc2)nc1 (stereo not drawn) [Pioglitazone, reference compound]
Glycémie (%) (rats Zucker Fa/Fa mâles): 115%
Plasma insuline (%) (rats Zucker Fa/Fa mâles): 49%
Poids ΔP% J₁₁-J₁ (rats Zucker Fa/Fa mâles): +320%
AGL (%) (rats Zucker Fa/Fa mâles): 57%
TG (%) (rats Zucker Fa/Fa mâles): 35%

Compound: COc1ccc(Cl)cc1C(=O)NC[C@@H](O)c1ccc(C[C@H]2SC(=O)NC2=O)cc1 [Exemple 40, (R,S) 5-{4-[1-hydroxy-2-(5-chloro-2-méthoxybenzamido)éthyl]benzyl} thiazolidine-2,4-dione]
Pouvoir hypoglycémiant (souris ob/ob): 100

Compound: O=C1NC(=O)C(Cc2ccc(CCNC(=O)C3c4ccccc4Oc4ccccc43)cc2)S1 (racemic) [Exemple 45, (R,S) 5-{4-[2-(xanthén-9-ylcarbonylamino)éthyl]benzyl}thiazolidine-2,4-dione]
Pouvoir hypoglycémiant (souris ob/ob): 100
